In ChEMBL document CHEMBL1201862, “PubChem BioAssay data set” (2004):
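Five concentrations, 48 hours, 96-well plates. GI50 marks 50% less growth.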 Calls of active or inactive are those of the source. Rule as the data show it: active = GI50 up to about 1.1 µM and inactive = higher.

What was measured:
Test in all cases: inhibition of tumour cell growth, NCI panel, 48 h
NCI/ADR-RES = tested on: NCI/ADR-RES
HCT-116 = tested on: HCT-116
HOP-18 = tested on: HOP-18
IGROV-1 = tested on: IGROV-1
MCF7 = tested on: MCF7
MDA-N = tested on: MDA-N
786-0 = tested on: 786-0
SN12C = tested on: SN12C
KM12 = tested on: KM12
LOX IMVI = tested on: LOX IMVI
OVCAR-3 = tested on: OVCAR-3
MDA-MB-231 = tested on: MDA-MB-231
M19-MEL = tested on: M19-MEL
HCC 2998 = tested on: HCC 2998
DMS-273 = tested on: DMS-273
SK-MEL-5 = tested on: SK-MEL-5
NCI-H460 = tested on: NCI-H460
PC-3 = tested on: PC-3
XF498 = tested on: XF498
HT-29 = tested on: HT-29
SW-620 = tested on: SW-620
SR = tested on: SR
SNB-78 = tested on: SNB-78
HOP-92 = tested on: HOP-92
DU-145 = tested on: DU-145
SNB-75 = tested on: SNB-75
T47D = tested on: T47D
SK-OV-3 = tested on: SK-OV-3
UO-31 = tested on: UO-31
NCI-H522 = tested on: NCI-H522
DLD-1 = tested on: DLD-1
MDA-MB-435 = tested on: MDA-MB-435
SF-268 = tested on: SF-268
HCT-15 = tested on: HCT-15
NCI-H23 = tested on: NCI-H23
BT-549 = tested on: BT-549
KM-20L2 = tested on: KM-20L2
OVCAR-8 = tested on: OVCAR-8
TK-10 = tested on: TK-10
NCI-H226 = tested on: NCI-H226
OVCAR-5 = tested on: OVCAR-5
EKVX = tested on: EKVX
UACC-62 = tested on: UACC-62
CCRF-CEM = tested on: CCRF-CEM
SK-MEL-2 = tested on: SK-MEL-2
OVCAR-4 = tested on: OVCAR-4
COLO 205 = tested on: COLO 205
K562 = tested on: K562
SK-MEL-28 = tested on: SK-MEL-28
Malme-3M = tested on: Malme-3M
SF-295 = tested on: SF-295
A498 = tested on: A498
DMS-114 = tested on: DMS-114
Hs-578T = tested on: Hs-578T
RPMI-8226 = tested on: RPMI-8226
CAKI-1 = tested on: CAKI-1
M14 = tested on: M14
MOLT-4 = tested on: MOLT-4
U-251 = tested on: U-251
RXF 393 = tested on: RXF 393
A549 = tested on: A549
SNB-19 = tested on: SNB-19
HOP-62 = tested on: HOP-62
HL-60 = tested on: HL-60
SF-539 = tested on: SF-539
UACC-257 = tested on: UACC-257
ACHN = tested on: ACHN

Measured: GI50

COc1cccc2c1C(=O)c1c(O)c3c(c(O)c1C2=O)C[C@@](O)(/C(C)=N/NC(=O)c1ccccc1)C[C@@H]3OC1CC(N)C(O)C(C)O1 (stereo partly drawn)
1840 nM: HCT-15
active: HCT-116 190 nM | HOP-18 0.454 µM | IGROV-1 262 nM | MCF7 46.7 nM | MDA-N 308 nM | 786-0 56.2 nM | SN12C 155 nM | KM12 392 nM | LOX IMVI 93.5 nM | OVCAR-3 624 nM | MDA-MB-231 0.49 µM | M19-MEL 302 nM | HCC 2998 481 nM | DMS-273 157 nM | SK-MEL-5 161 nM | NCI-H460 35.5 nM | PC-3 0.171 µM | XF498 80.3 nM | HT-29 589 nM | SW-620 136 nM | SR 19.9 nM | SNB-78 658 nM | HOP-92 114 nM | DU-145 0.135 µM | SNB-75 373 nM | T47D 0.159 µM | SK-OV-3 583 nM | NCI-H522 190 nM | MDA-MB-435 0.362 µM | SF-268 290 nM | NCI-H23 201 nM | BT-549 0.304 µM | KM-20L2 807 nM | OVCAR-8 283 nM | TK-10 0.53 µM | NCI-H226 104 nM | OVCAR-5 643 nM | EKVX 693 nM | UACC-62 242 nM | CCRF-CEM 59.2 nM | SK-MEL-2 505 nM | COLO 205 474 nM | K562 233 nM | SK-MEL-28 973 nM | Malme-3M 213 nM | SF-295 195 nM | A498 510 nM | DMS-114 202 nM | Hs-578T 0.256 µM | RPMI-8226 137 nM | CAKI-1 141 nM | M14 0.203 µM | MOLT-4 32.4 nM | U-251 147 nM | RXF 393 330 nM | A549 206 nM | SNB-19 179 nM | HOP-62 122 nM | HL-60 60.4 nM | SF-539 261 nM | UACC-257 594 nM | ACHN 80.2 nM
inactive: NCI/ADR-RES 16.3 µM | UO-31 1.77 µM | DLD-1 1.69 µM | OVCAR-4 1.17 µM

COc1ccc2[nH]c3ccc4cc[n+](CCN5CCC(C6CCN(CC[n+]7ccc8ccc9[nH]c%10ccc(OC)cc%10c9c8c7)CC6)CC5)cc4c3c2c1
active: HCT-116 262 nM | IGROV-1 352 nM | 786-0 249 nM | SN12C 661 nM | KM12 818 nM | M19-MEL 719 nM | DMS-273 230 nM | HT-29 333 nM | SW-620 316 nM | SR 117 nM | HOP-92 303 nM | NCI-H522 875 nM | DLD-1 0.824 µM | OVCAR-8 405 nM | UACC-62 938 nM | CCRF-CEM 274 nM | K562 228 nM | Malme-3M 526 nM | DMS-114 125 nM | CAKI-1 1020 nM | MOLT-4 346 nM | RXF 393 569 nM | A549 409 nM | ACHN 180 nM
2240 nM: HCT-15
inactive: NCI/ADR-RES 19.5 µM | HOP-18 1.79 µM | MDA-N 2960 nM | OVCAR-3 > 62100 nM | MDA-MB-231 8.04 µM | SK-MEL-5 1810 nM | PC-3 31 µM | XF498 > 60100 nM | SNB-78 9120 nM | DU-145 21.4 µM | SNB-75 14200 nM | T47D 20.4 µM | SK-OV-3 6370 nM | UO-31 > 100 µM | MDA-MB-435 > 50 µM | SF-268 1970 nM | NCI-H23 > 50000 nM | BT-549 35.5 µM | KM-20L2 1360 nM | TK-10 21.4 µM | NCI-H226 29400 nM | OVCAR-5 > 76000 nM | EKVX > 50000 nM | SK-MEL-2 > 52700 nM | OVCAR-4 7.29 µM | SK-MEL-28 1880 nM | SF-295 1640 nM | A498 > 16200 nM | Hs-578T 33 µM | M14 > 50 µM | U-251 4670 nM | SNB-19 1380 nM | HOP-62 > 40600 nM | SF-539 2650 nM | UACC-257 35200 nM

CC1C(O)C2(Oc3cc4c(c5c3[C@@H](CC5O)[C@H]2C)CCC2Cc3nc5c(nc3C[C@@]42C)CC2CCC3C4=C[C@H]6O[C@@]7(O[C@@](C)(CO)C[C@@H]7O)C(C)[C@@]6(O)[C@]4(C)[C@@H](O)CC3[C@]2(C)C5)OC1(C)C (stereo partly drawn)
inactive: NCI/ADR-RES 2.9 µM | HOP-18 2.01 µM
649 nM: HCT-15
active: HCT-116 120 nM | IGROV-1 128 nM | MCF7 117 nM | SN12C 377 nM | KM12 241 nM | LOX IMVI 115 nM | OVCAR-3 89.1 nM | M19-MEL 863 nM | HCC 2998 536 nM | DMS-273 30.4 nM | SK-MEL-5 237 nM | NCI-H460 73.5 nM | XF498 115 nM | HT-29 97.7 nM | SW-620 201 nM | SNB-78 49.4 nM | HOP-92 204 nM | SNB-75 5.43 nM | SK-OV-3 139 nM | UO-31 1.08 µM | NCI-H522 123 nM | DLD-1 1.1 µM | SF-268 90.4 nM | NCI-H23 114 nM | KM-20L2 97.5 nM | OVCAR-8 428 nM | NCI-H226 135 nM | OVCAR-5 435 nM | EKVX 123 nM | UACC-62 87.7 nM | CCRF-CEM 58.2 nM | SK-MEL-2 114 nM | OVCAR-4 0.498 µM | COLO 205 152 nM | K562 98 nM | Malme-3M 92.7 nM | SF-295 5.31 nM | A498 65.2 nM | DMS-114 104 nM | RPMI-8226 36.4 nM | CAKI-1 148 nM | U-251 3.02 nM | RXF 393 26.9 nM | A549 58.1 nM | HOP-62 71.5 nM | HL-60 64.4 nM | SF-539 78 nM | UACC-257 614 nM
